Experimental data as given in US20140005163A1 (NOVARTIS AG, priority 2010, published 2014).

Columns and labels:
PI3K alpha = biological target: T1, PI3K alpha (Homo sapiens, UniProt P42336); experiment: PI3K alpha kinase assay (Kinase-Glo luminescence); assay type: biochemical
T1 construct: p85(iSH2) fusion partner (see partner chain) (N); His tag (C); made in house; host or cells: baculovirus; Tn5 (Trichoplusia ni) or TiniPro insect cells
Method in brief: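 Enzyme 10 nM PI3Kα EMV B1075; ATP 1 μM; PI 10 μg/mL; Tris-HCl pH 7.5 10 mM, MgCl2 3 mM, NaCl 50 mM, CHAPS 0.05%, DTT 1 mM; 60 min RT; Kinase-Glo luminescence; 4-parameter IC50 fit, 8 concentrations, single points.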

PI3K beta = biological target: T2, PI3K beta (Homo sapiens, UniProt P42338); experiment: PI3K beta kinase assay (Kinase-Glo luminescence); assay type: biochemical
T2 construct: for the full-length p110-b subunit are generated and fused by overlapping PCR; p85(iSH2) fusion partner (see partner chain) (N); His tag (C); made in house; host or cells: baculovirus; Tn5 (Trichoplusia ni) or TiniPro insect cells
Method in brief: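 Residual ATP after a 60 min room-temperature reaction is quantified by Kinase-Glo luminescence. Enzyme: 25 nM BV-949 (p85 iSH2–linker–full-length p110β); substrates 1 μM ATP, 10 μg/mL PI; buffer Tris pH 7.5, MgCl2, NaCl, CHAPS, DTT. Eight concentrations per compound, four-parameter logistic IC50.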

PI3K delta = biological target: T3, PI3K delta (Homo sapiens, UniProt O00329); experiment: PI3K delta kinase assay (Kinase-Glo luminescence); assay type: biochemical
T3 construct: for the full-length p110-d subunit are generated and fused by overlapping PCR; p85(iSH2) fusion partner (see partner chain) (N); His tag (C); made in house; host or cells: baculovirus; Tn5 (Trichoplusia ni) or TiniPro insect cells
Method in brief: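 Lipid kinase activity of a His-tagged p110δ full-length/p85 iSH2 fusion (10 nM) toward bovine liver phosphatidylinositol (10 μg/mL) at 1 μM ATP, pH 7.5, 60 min, room temperature. ATP consumption is quantified by luciferase-based luminescence. Four-parameter logistic fitting gives IC50.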

mTOR = biological target: T4, mTOR (Homo sapiens, UniProt P42345); experiment: Biochemical assay for m-TOR by TR-FRET; conditions: 8 μM ATP, 400 nM GFP-4EBP1, 0.5 nM mTOR
T4 construct: purchased Invitrogen Corporation (Carlsbad/CA, USA) PV4753
Method in brief: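 TR-FRET detection of pThr46 on GFP-4EBP1 (400 nM final) using Tb3+-labelled antibody (0.5 nM), added with EDTA to stop reactions. Reactions ran at rt with 0.5 nM mTOR and 8 μM ATP (final) in HEPES pH 7.5 buffer containing 10 mM MnCl2.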

T1 sequence (P42336 with tags, fused parts or gaps limits assumed): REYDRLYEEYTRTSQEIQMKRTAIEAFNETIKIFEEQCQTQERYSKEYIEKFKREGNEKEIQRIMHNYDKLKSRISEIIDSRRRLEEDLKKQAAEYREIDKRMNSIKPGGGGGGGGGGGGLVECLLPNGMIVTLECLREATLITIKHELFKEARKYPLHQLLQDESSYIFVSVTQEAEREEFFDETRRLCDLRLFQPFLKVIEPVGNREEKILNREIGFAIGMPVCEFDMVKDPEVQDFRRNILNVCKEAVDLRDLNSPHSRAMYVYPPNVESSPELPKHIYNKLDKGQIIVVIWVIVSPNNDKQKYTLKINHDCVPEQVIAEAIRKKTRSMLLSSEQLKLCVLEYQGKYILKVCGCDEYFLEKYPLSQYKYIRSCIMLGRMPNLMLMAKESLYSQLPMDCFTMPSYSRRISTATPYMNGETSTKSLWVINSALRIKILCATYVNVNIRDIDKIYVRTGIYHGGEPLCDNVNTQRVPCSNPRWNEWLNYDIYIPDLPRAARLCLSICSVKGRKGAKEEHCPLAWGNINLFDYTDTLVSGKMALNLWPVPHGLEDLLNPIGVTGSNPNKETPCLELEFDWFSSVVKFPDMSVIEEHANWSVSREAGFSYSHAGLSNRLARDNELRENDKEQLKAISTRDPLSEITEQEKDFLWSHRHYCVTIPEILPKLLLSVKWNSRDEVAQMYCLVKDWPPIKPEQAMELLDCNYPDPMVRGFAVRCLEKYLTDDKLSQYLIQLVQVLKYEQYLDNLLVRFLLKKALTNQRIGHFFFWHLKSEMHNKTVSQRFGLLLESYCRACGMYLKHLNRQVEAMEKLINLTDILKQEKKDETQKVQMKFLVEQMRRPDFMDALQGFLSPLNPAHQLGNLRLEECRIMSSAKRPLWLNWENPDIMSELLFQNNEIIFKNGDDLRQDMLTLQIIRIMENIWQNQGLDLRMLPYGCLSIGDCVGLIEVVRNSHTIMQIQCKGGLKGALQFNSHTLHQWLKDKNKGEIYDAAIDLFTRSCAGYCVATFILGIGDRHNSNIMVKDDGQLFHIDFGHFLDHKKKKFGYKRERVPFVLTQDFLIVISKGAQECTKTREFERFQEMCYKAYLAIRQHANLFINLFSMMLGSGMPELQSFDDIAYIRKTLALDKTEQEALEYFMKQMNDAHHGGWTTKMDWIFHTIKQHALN
T2 sequence (P42338 with tags, fused parts or gaps limits assumed): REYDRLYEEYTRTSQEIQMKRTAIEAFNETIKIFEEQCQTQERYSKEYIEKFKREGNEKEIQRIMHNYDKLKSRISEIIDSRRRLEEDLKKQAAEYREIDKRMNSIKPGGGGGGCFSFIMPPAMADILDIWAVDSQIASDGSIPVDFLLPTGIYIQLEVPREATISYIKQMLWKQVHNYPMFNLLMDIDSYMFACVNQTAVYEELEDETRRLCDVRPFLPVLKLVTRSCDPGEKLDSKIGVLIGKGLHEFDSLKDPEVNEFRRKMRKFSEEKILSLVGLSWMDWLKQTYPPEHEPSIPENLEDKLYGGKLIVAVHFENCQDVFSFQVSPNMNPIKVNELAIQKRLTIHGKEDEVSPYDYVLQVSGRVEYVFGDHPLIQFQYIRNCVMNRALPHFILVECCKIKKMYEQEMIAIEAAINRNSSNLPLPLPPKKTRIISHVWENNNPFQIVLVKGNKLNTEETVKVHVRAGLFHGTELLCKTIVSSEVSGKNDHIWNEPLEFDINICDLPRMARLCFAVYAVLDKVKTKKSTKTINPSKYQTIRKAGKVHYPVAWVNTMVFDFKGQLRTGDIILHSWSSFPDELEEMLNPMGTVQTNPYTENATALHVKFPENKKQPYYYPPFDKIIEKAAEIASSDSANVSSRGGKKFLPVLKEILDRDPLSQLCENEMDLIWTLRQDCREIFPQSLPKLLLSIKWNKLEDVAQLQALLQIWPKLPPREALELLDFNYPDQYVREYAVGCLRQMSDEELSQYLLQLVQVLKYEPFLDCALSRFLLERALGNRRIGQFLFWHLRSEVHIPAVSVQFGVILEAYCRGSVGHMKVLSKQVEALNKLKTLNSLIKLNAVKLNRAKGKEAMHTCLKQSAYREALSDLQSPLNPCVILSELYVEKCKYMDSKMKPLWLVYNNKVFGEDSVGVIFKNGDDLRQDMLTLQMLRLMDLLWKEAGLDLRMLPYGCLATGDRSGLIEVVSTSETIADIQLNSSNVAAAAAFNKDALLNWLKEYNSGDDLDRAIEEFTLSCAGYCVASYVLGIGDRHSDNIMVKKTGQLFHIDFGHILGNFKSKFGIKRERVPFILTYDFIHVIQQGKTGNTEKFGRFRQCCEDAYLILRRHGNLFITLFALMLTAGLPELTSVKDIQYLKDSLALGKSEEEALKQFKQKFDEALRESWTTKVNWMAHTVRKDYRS
T4 sequence (P42345 1360-2549 limits assumed): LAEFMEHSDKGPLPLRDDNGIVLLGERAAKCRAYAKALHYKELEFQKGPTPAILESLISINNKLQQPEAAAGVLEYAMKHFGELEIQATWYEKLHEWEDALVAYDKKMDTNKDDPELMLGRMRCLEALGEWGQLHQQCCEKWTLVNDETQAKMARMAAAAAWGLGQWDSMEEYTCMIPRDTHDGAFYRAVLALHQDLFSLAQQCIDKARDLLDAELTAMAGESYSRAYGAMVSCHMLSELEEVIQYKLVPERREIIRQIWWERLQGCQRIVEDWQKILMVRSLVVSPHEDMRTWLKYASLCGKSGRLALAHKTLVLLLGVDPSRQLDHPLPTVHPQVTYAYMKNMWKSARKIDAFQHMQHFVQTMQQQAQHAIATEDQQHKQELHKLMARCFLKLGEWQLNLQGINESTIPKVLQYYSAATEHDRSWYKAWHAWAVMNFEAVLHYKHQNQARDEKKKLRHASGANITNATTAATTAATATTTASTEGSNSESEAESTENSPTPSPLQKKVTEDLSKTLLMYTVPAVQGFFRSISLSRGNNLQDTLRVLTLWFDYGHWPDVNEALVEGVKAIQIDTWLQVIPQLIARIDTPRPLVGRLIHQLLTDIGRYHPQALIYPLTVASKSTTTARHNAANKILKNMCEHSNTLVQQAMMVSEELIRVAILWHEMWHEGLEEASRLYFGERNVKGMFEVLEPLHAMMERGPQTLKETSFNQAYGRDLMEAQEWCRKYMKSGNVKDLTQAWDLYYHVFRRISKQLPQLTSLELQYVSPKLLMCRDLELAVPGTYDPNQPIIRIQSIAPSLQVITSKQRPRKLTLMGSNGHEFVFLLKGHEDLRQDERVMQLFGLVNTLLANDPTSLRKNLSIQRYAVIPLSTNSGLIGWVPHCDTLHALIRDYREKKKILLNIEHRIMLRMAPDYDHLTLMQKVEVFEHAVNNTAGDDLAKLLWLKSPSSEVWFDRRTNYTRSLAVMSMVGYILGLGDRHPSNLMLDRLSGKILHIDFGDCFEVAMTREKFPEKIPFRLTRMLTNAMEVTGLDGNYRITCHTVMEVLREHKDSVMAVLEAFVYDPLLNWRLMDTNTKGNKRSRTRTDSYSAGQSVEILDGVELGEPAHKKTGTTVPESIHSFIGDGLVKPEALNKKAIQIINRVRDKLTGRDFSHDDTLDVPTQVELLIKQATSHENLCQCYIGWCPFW
T3 sequence (O00329 with tags, fused parts or gaps limits assumed): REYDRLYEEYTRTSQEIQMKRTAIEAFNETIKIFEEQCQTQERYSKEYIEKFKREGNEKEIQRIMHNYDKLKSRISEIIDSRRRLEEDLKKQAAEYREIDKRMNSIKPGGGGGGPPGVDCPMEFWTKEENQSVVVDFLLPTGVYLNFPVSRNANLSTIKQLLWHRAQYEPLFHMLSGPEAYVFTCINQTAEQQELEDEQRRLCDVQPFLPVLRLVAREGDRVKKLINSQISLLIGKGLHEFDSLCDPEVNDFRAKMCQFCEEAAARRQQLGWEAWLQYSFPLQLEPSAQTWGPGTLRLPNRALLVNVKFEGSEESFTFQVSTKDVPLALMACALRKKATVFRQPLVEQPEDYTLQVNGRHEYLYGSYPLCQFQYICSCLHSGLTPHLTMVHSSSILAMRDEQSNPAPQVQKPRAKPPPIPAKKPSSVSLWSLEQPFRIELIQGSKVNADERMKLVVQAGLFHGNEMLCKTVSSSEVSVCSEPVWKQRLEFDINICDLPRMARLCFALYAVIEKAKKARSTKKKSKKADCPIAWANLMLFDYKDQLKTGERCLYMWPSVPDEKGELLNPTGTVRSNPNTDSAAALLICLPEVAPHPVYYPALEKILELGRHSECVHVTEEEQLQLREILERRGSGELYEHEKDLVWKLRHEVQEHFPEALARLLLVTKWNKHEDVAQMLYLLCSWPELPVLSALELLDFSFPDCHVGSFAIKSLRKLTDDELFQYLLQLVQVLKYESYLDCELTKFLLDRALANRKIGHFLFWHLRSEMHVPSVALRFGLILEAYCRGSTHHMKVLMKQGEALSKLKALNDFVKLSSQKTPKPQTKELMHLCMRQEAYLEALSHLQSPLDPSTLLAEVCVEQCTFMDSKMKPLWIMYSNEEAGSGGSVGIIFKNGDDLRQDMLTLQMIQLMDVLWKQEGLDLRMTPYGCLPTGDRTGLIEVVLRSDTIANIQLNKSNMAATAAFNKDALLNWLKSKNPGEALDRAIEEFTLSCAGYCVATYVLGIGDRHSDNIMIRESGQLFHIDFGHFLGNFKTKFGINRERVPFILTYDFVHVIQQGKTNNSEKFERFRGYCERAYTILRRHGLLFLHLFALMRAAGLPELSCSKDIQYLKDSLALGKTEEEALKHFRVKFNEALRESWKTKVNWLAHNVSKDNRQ

| IC50 (PI3K alpha) [nM] | IC50 (PI3K beta) [nM] | IC50 (PI3K delta) [nM] | IC50 (mTOR) [nM] | SMILES |
| --- | --- | --- | --- | --- |
| 6 | 11 | 9 | 121 | Cc1nn(C)cc1-n1c(=O)n(C)c2cnc3ccc(-c4cncc(S(C)(=O)=O)c4)cc3c21 [Example 22, 1-(1,3-Dimethyl-1H-pyrazol-4-yl)-8-(5-methanesulfonyl-pyridin-3-yl)-3-methyl-1,3-dihydro-imidazo[4,5-c]quinolin-2-one] |
| 74 | – | 234 | 61 | Cc1nn(C)cc1-n1c(=O)n(C)c2cnc3ccc(-c4cccc(OC(C)C)c4F)cc3c21 [Example 83, 1-(1,3-Dimethyl-1H-pyrazol-4-yl)-8-(2-fluoro-3-isopropoxy-phenyl)-3-methyl-1,3-dihydro-imidazo[4,5-c]quinolin-2-one] |
| 9 | 21 | 6 | 31 | COCCOc1cc(-c2ccc3ncc4c(c3c2)n(-c2cn(C)nc2C)c(=O)n4C)cnc1C [Example 86.2, 1-(1,3-Dimethyl-1H-pyrazol-4-yl)-8-[5-(2-methoxy-ethoxy)-6-methyl-pyridin-3-yl]-3-methyl-1,3-dihydro-imidazo[4,5-c]quinolin-2-one] |
| 15 | 150 | < 3 | 17 | COc1ncc(-c2ccc3ncc4c(c3c2)n(-c2cn(C(C)C)nc2C)c(=O)n4C)c(OC)n1 [Example 234.3, 8-(2,4-Dimethoxy-pyrimidin-5-yl)-1-(1-isopropyl-3-methyl-1H-pyrazol-4-yl)-3-methyl-1,3-dihydro-imidazo[4,5-c]quinolin-2-one] |
| 79 | 391 | 209 | 20 | Cc1nn(C(C)C)cc1-n1c(=O)n(C)c2cnc3ccc(-c4ccc(C(N)=O)nc4)cc3c21 [Example 112, 5-[1-(1-Isopropyl-3-methyl-1H-pyrazol-4-yl)-3-methyl-2-oxo-2,3-dihydro-1H-imidazo[4,5-c]quinolin-8-yl]-pyridine-2-carboxylic acid amide] |
| 50 | 207 | 14 | 9 | CNc1ncc(-c2ccc3ncc4c(c3c2)n(-c2cn(C(C)C)nc2C)c(=O)n4C)cc1Cl [Example 146.3, 8-(5-Chloro-6-methylamino-pyridin-3-yl)-1-(1-isopropyl-3-methyl-1H-pyrazol-4-yl)-3-methyl-1,3-dihydro-imidazo[4,5-c]quinolin-2-one] |
| 6 | 18 | 14 | 13 | COc1cc(-c2ccc3ncc4c(c3c2)n(-c2cn(CCO)nc2C)c(=O)n4C)cnc1C [Example 211.1, 1-[1-(2-Hydroxy-ethyl)-3-methyl-1H-pyrazol-4-yl]-8-(5-methoxy-6-methyl-pyridin-3-yl)-3-methyl-1,3-dihydro-imidazo[4,5-c]quinolin-2-one] |
| 9 | 10 | 15 | 4 | CNc1cc(-c2ccc3ncc4c(c3c2)n(-c2cn(C)nc2C)c(=O)n4C)cnc1CO [Example 158.1, 1-(1,3-Dimethyl-1H-pyrazol-4-yl)-8-(6-hydroxymethyl-5-methylamino-pyridin-3-yl)-3-methyl-1,3-dihydro-imidazo[4,5-c]quinolin-2-one] |
| 103 | 517 | 336 | 112 | Cc1nn(C)cc1-n1c(=O)n(C)c2cnc3ccc(-c4cncnc4)cc3c21 [Example 26, 1-(1,3-Dimethyl-1H-pyrazol-4-yl)-3-methyl-8-pyrimidin-5-yl-1,3-dihydro-imidazo[4,5-c]quinolin-2-one] |
| 38 | 215 | 215 | 322 | CCOc1cccc(-c2ccc3ncc4c(c3c2)n(-c2cn(C)nc2C)c(=O)n4C)c1 [Example 57, 1-(1,3-Dimethyl-1H-pyrazol-4-yl)-8-(3-ethoxy-phenyl)-3-methyl-1,3-dihydro-imidazo[4,5-c]quinolin-2-one] |
| 22 | – | 598 | 99 | Cc1nn(CC(=O)N(C)C)c(C)c1-n1c(=O)n(C)c2cnc3ccc(-c4ccc(-n5cccn5)cc4)cc3c21 [Example 51.4, 2-{3,5-Dimethyl-4-[3-methyl-2-oxo-8-(4-pyrazol-1-yl-phenyl)-2,3-dihydro-imidazo[4,5-c]quinolin-1-yl]pyrazol-1-yl}-N,N-dimethyl-acetamide] |
| 18 | 287 | 33 | 6 | Cc1nn(C)cc1-n1c(=O)n(C)c2cnc3ccc(-c4cnc(N)c(F)c4)cc3c21 [Example 142.2, 8-(6-Amino-5-fluoro-pyridin-3-yl)-1-(1,3-dimethyl-1H-pyrazol-4-yl)-3-methyl-1,3-dihydro-imidazo[4,5-c]quinolin-2-one] |
| 17 | 33 | 28 | 5 | Cc1nn(C)cc1-n1c(=O)n(C)c2cnc3ccc(-c4cnc(Cl)c(N)c4)cc3c21 [Example 152.2, 8-(5-Amino-6-chloro-pyridin-3-yl)-1-(1,3-dimethyl-1H-pyrazol-4-yl)-3-methyl-1,3-dihydro-imidazo[4,5-c]quinolin-2-one] |
| 79 | – | 141 | 53 | CCn1cc(-n2c(=O)n(C)c3cnc4ccc(-c5ccc(COC)nc5)cc4c32)c(C)n1 [Example 104, 1-(1-Ethyl-3-methyl-1H-pyrazol-4-yl)-8-(6-methoxymethyl-pyridin-3-yl)-3-methyl-1,3-dihydro-imidazo[4,5-c]quinolin-2-one] |
| 43 | 166 | 54 | 151 | COc1ccc(-c2ccc3ncc4c(c3c2)n(-c2cnn(C)c2C)c(=O)n4C)cn1 [Example 2.9, 1-(1,5-Dimethyl-1H-pyrazol-4-yl)-8-(6-methoxy-pyridin-3-yl)-3-methyl-1,3-dihydro-imidazo[4,5-c]quinolin-2-one] |
| 7 | 15 | 7 | 133 | Cc1nn(C)cc1-n1c(=O)n(C)c2cnc3ccc(-c4cc(O)cc(C(F)(F)F)c4)cc3c21 [Example 34, 1-(1,3-Dimethyl-1H-pyrazol-4-yl)-8-(3-hydroxy-5-trifluoromethyl-phenyl)-3-methyl-1,3-dihydro-imidazo[4,5-c]quinolin-2-one] |
| 93 | – | 777 | 13 | CCN(CC)C(=O)Cn1cc(-n2c(=O)n(C)c3cnc4ccc(-c5cnc(N6CCCC6)nc5)cc4c32)c(C)n1 [Example 247.1, N,N-Diethyl-2-{3-methyl-4-[3-methyl-2-oxo-8-(2-pyrrolidin-1-yl-pyrimidin-5-yl)-2,3-dihydro-imidazo[4,5-c]quinolin-1-yl]-pyrazol-1-yl}-acetamide] |
| 70 | – | 441 | 65 | Cc1nn(C)cc1-n1c(=O)n(C)c2cnc3ccc(-c4ccc(OCC5CC5)nc4)cc3c21 [Example 42, 8-(6-Cyclopropylmethoxy-pyridin-3-yl)-1-(1,3-dimethyl-1H-pyrazol-4-yl)-3-methyl-1,3-dihydro-imidazo[4,5-c]quinolin-2-one] |
| 188 | – | 371 | 157 | Cc1nn(C)cc1-n1c(=O)n(C)c2cnc3ccc(-c4ccc5c(c4)CCN5C)cc3c21 [Example 50, 1-(1,3-Dimethyl-1H-pyrazol-4-yl)-3-methyl-8-(1-methyl-2,3-dihydro-1H-indol-5-yl)-1,3-dihydro-imidazo[4,5-c]quinolin-2-one] |
| 161 | – | 271 | 143 | CCOc1ccc(-c2ccc3ncc4c(c3c2)n(-c2cn(CCOC)nc2C)c(=O)n4C)cn1 [Example 131, 8-(6-Ethoxy-pyridin-3-yl)-1-[1-(2-methoxy-ethyl)-3-methyl-1H-pyrazol-4-yl]-3-methyl-1,3-dihydro-imidazo[4,5-c]quinolin-2-one] |
| 199 | – | 235 | 155 | Cc1cc(-n2c(=O)n(C)c3cnc4ccc(-c5cncc(N6CCOCC6)c5)cc4c32)n(C)n1 [Example 175.2, 1-(2,5-Dimethyl-2H-pyrazol-3-yl)-3-methyl-8-(5-morpholin-4-yl-pyridin-3-yl)-1,3-dihydro-imidazo[4,5-c]quinolin-2-one] |
